The text below walks through data of publication PMC12040169 (PLOS Biology, 2025).

In general, viability refers to a read-out of living cells in per cent, often relative to untreated cells.

This data set can be described thus: in vitro. The conditions noted are these: human, hela cells, % viability.

Take `CN1CCN(c2cncc(-c3ccccc3CO)n2)CC1` [CBK065302]: the viability at 28.5 h, 10 µM was determined as 91.8%.

On to `CCCC/C=C/c1cncc(N[C@H](CO)C(C)C)n1` [CBK065314], for which the viability at 28.5 h, 10 µM stood at 97%.

On to `OCc1ccccc1-c1cncc(NCc2ccc3c(c2)OCO3)n1` [CBK065318], for which the viability at 28.5 h, 10 µM stood at 89.2%.

As to `N#Cc1cccc(Nc2cncc(-c3cccc(N)c3)n2)c1` [CBK065319], the viability at 28.5 h, 10 µM was determined as 89.1%.

With `COc1ccc(C(C)C)cc1-c1cncc(NCCc2ccccn2)n1` [CBK065325], the viability at 28.5 h, 10 µM is 94.9%.

On to `OCc1ccccc1-c1cncc(NCc2cccs2)n1` [CBK065345], for which the viability at 28.5 h, 10 µM stood at 104%.

As for `COc1ccc(C(C)C)cc1-c1cncc(NCc2ccc3c(c2)OCO3)n1` [CBK065348], the viability at 28.5 h, 10 µM worked out at 95.2%.

`COc1ccc(C(C)C)cc1-c1cncc(N[C@@H](CO)C(C)C)n1` [CBK065356]: the viability at 28.5 h, 10 µM was 102%.

Consider `O=C(O)/C=C/c1cccc(-c2cncc(NCCc3ccncc3)n2)c1` [CBK065358], for which the viability at 28.5 h, 10 µM is 99.5%.

For `CC(=O)Nc1cccc(-c2cncc(NCCc3ccccn3)n2)c1` [CBK065359], the viability at 28.5 h, 10 µM turned out to be 103%.

Take `CN(C)CCNC(=O)c1cccc(-c2cncc(NCc3ccc4c(c3)OCO4)n2)c1` [CBK065361]: the viability at 28.5 h, 10 µM amounted to 110%.

For `COc1ccc(C(C)C)cc1-c1cncc(N(C)CCN(C)C)n1` [CBK065364], the viability at 28.5 h, 10 µM is 105%.

For `COc1ccc(-c2cncc(N3CCN(C)CC3)n2)cc1` [CBK065378], the viability at 28.5 h, 10 µM amounted to 91.8%.

`NC(=O)c1ccc(-c2cncc(NCc3ccco3)n2)cc1` [CBK065383]: the viability at 28.5 h, 10 µM amounted to 85.6%.

As for `NC(=O)c1ccc(-c2cncc(N3CCN(CCO)CC3)n2)cc1` [CBK065392], the viability at 28.5 h, 10 µM is 96.5%.

Take `COc1cncc(-c2cncc(N3CCN(CCN(C)C)CC3)n2)c1` [CBK065393]: the viability at 28.5 h, 10 µM was found to be 120%.

Consider `COc1ccc(-c2cncc(NCc3ccncc3)n2)cc1` [CBK065394], for which the viability at 28.5 h, 10 µM stood at 111%.

Turning to `COc1cncc(-c2cncc(Nc3cc(OC)c(OC)c(OC)c3)n2)c1` [CBK065397], the viability at 28.5 h, 10 µM turned out to be 95.1%.

As for `OCc1ccccc1-c1cncc(Nc2cccc(Cl)c2)n1` [CBK065400], the viability at 28.5 h, 10 µM worked out at 102%.

As for `COc1cc(-c2cncc(NCCc3ccncc3)n2)cc(OC)c1OC` [CBK065405], the viability at 28.5 h, 10 µM was determined as 94.4%.

Regarding `CCNc1cncc(-c2ccc(C(N)=O)cc2)n1` [CBK065414], the viability at 28.5 h, 10 µM amounted to 96.2%.

For `CCCC/C=C/c1cncc(NCCO)n1` [CBK065419], the viability at 28.5 h, 10 µM turned out to be 109%.

Take `O=C(NCCO)c1cccc(-c2cncc(NCCCN3CCOCC3)n2)c1` [CBK065432]: the viability at 28.5 h, 10 µM stood at 99.4%.

Take `CCCNc1cncc(-c2cccc(CO)c2)n1` [CBK065433]: the viability at 28.5 h, 10 µM is 95.7%.

Consider `COc1cncc(-c2cncc(Nc3ccccc3)n2)c1` [CBK065435], for which the viability at 28.5 h, 10 µM stood at 113%.

As to `CN(C)CCN1CCN(c2cncc(-c3cccc(C(=O)O)c3)n2)CC1` [CBK065443], the viability at 28.5 h, 10 µM stood at 104%.

Regarding `CCCNc1cncc(-c2cccc(O)c2)n1` [CBK065447], the viability at 28.5 h, 10 µM was found to be 109%.

`CN(C)CCN(C)c1cncc(-c2cccc(/C=C/C(=O)O)c2)n1` [CBK065451]: the viability at 28.5 h, 10 µM was 99.5%.

`CC(=O)Nc1cccc(-c2cncc(N[C@H](CO)C(C)C)n2)c1` [CBK065475]: the viability at 28.5 h, 10 µM stood at 98.2%.

For `COc1cc(-c2cncc(NC(C)CCCC(C)(C)O)n2)cc(OC)c1OC` (stereo not drawn) [CBK065481], the viability at 28.5 h, 10 µM worked out at 102%.

`c1ccc(N2CCN(c3cncc(-c4cccs4)n3)CC2)nc1` [CBK065502]: the viability at 28.5 h, 10 µM was determined as 102%.

Regarding `CCCC/C=C/c1cncc(NC(C)CCCC(C)(C)O)n1` (stereo not drawn) [CBK065505], the viability at 28.5 h, 10 µM was 104%.

In the case of `OCC1CCCN1c1cncc(-c2cccc3ccccc23)n1` (stereo not drawn) [CBK065509], the viability at 28.5 h, 10 µM is 91.1%.

Turning to `C[C@H](Nc1cncc(-c2cccc(CO)c2)n1)c1ccccc1` [CBK065512], the viability at 28.5 h, 10 µM came to 102%.

For the compound `COc1ccc(CNc2cncc(-c3ccc(C(C)C)cc3)n2)cc1` [CBK065514], the viability at 28.5 h, 10 µM is 119%.

On to `COc1ccc(C(C)C)cc1-c1cncc(NC(C)CCCC(C)(C)O)n1` (stereo not drawn) [CBK065521], for which the viability at 28.5 h, 10 µM amounted to 93.3%.

With `COc1cc(CNc2cncc(-c3cccs3)n2)cc(OC)c1OC` [CBK065526], the viability at 28.5 h, 10 µM was 106%.

Take `C[C@@H](Nc1cncc(-c2ccccc2CO)n1)c1ccccc1` [CBK065543]: the viability at 28.5 h, 10 µM was found to be 106%.

As for `COc1cc(-c2cncc(N(CCO)CCO)n2)cc(OC)c1OC` [CBK065544], the viability at 28.5 h, 10 µM worked out at 112%.

As to `CC(C)[C@@H](CO)Nc1cncc(-c2ccc3ccccc3c2)n1` [CBK065546], the viability at 28.5 h, 10 µM was determined as 100%.

As to `COc1cc(-c2cncc(N[C@@H](C)c3ccccc3)n2)cc(OC)c1OC` [CBK065551], the viability at 28.5 h, 10 µM is 104%.

Consider `OCc1cccc(-c2cncc(Nc3ccccc3)n2)c1` [CBK065576], for which the viability at 28.5 h, 10 µM is 97.4%.

As to `CCC(CO)Nc1cncc(-c2ccc(C(N)=O)cc2)n1` (stereo not drawn) [CBK065577], the viability at 28.5 h, 10 µM worked out at 100%.

On to `Nc1ccc(-c2cncc(NCc3ccccc3)n2)cc1` [CBK065578], for which the viability at 28.5 h, 10 µM was 109%.

Take `CN(C)CCN(C)c1cncc(-c2cccc(C(F)(F)F)c2)n1` [CBK065584]: the viability at 28.5 h, 10 µM is 115%.

Regarding `Clc1cccc(CNc2cncc(-c3cccs3)n2)c1` [CBK065609], the viability at 28.5 h, 10 µM came to 105%.

As for `CN(C)c1cccc(-c2cncc(NCCCO)n2)c1` [CBK065619], the viability at 28.5 h, 10 µM amounted to 102%.

Turning to `Nc1ccc(-c2cncc(NCCc3ccccn3)n2)cc1` [CBK065632], the viability at 28.5 h, 10 µM was 103%.

On to `COc1cc(Nc2cncc(-c3ccc(N)cc3)n2)cc(OC)c1OC` [CBK065642], for which the viability at 28.5 h, 10 µM was 56.2%.

On to `CN(C)CCN(C)c1cncc(-c2cccc(N(C)C)c2)n1` [CBK065659], for which the viability at 28.5 h, 10 µM was 100%.

For `CCN(CC)CCN1CCN(c2cncc(-c3ccc(F)cc3F)n2)CC1` [CBK065668], the viability at 28.5 h, 10 µM amounted to 107%.

For `C[C@@H](Nc1cncc(-c2ccc(F)cc2F)n1)c1ccccc1` [CBK065676], the viability at 28.5 h, 10 µM came to 87%.

As to `COc1ccc(N2CCN(c3cncc(-c4cccs4)n3)CC2)cc1OC` [CBK065687], the viability at 28.5 h, 10 µM was 104%.

On to `CC(=O)Nc1ccc(-c2cncc(N(C)CCN(C)C)n2)cc1` [CBK065694], for which the viability at 28.5 h, 10 µM came to 97.8%.

With `CN(C)CCN(C)c1cncc(-c2cccc3ccccc23)n1` [CBK065709], the viability at 28.5 h, 10 µM worked out at 106%.

With `CC(=O)Nc1ccc(-c2cncc(N3CCN(CCN4CCCC4)CC3)n2)cc1` [CBK065710], the viability at 28.5 h, 10 µM was determined as 103%.

For the compound `C[C@@H](Nc1cncc(-c2cccs2)n1)c1ccccc1` [CBK065711], the viability at 28.5 h, 10 µM amounted to 108%.

Turning to `c1ccc(CN2CCN(c3cncc(-c4cccs4)n3)CC2)nc1` [CBK065734], the viability at 28.5 h, 10 µM stood at 98.1%.

Regarding `CCC(CO)Nc1cncc(-c2cc(C(C)C)ccc2OC)n1` (stereo not drawn) [CBK065743], the viability at 28.5 h, 10 µM amounted to 91.7%.

On to `Fc1ccc(-c2cncc(NCCc3cccnc3)n2)cc1Cl` [CBK065745], for which the viability at 28.5 h, 10 µM was 91.3%.

With `OCCC1CCCCN1c1cncc(-c2cccs2)n1` (stereo not drawn) [CBK065758], the viability at 28.5 h, 10 µM amounted to 104%.

Take `Clc1cccc(Nc2cncc(-c3cccc4ccccc34)n2)c1` [CBK065764]: the viability at 28.5 h, 10 µM is 93.4%.

Regarding `OCCN(CCO)c1cncc(-c2cccs2)n1` [CBK065766], the viability at 28.5 h, 10 µM worked out at 95.4%.

Regarding `Clc1ccc(-c2cncc(NCCc3ccncc3)n2)cc1` [CBK065787], the viability at 28.5 h, 10 µM worked out at 99.5%.

Regarding `c1csc(-c2cncc(NCCc3ccncc3)n2)c1` [CBK065797], the viability at 28.5 h, 10 µM is 105%.

In the case of `C[C@H](Nc1cncc(-c2ccc3ccccc3c2)n1)c1ccccc1` [CBK065799], the viability at 28.5 h, 10 µM worked out at 108%.

For `O=C(O)C1CCN(c2cncc(-c3ccc4ccccc4c3)n2)CC1` [CBK065801], the viability at 28.5 h, 10 µM worked out at 95.5%.

Take `C[C@H](Nc1cncc(-c2cccnc2)n1)c1ccccc1` [CBK065807]: the viability at 28.5 h, 10 µM amounted to 96.7%.

Consider `Fc1ccc(Nc2cncc(-c3cccs3)n2)cc1Cl` [CBK065813], for which the viability at 28.5 h, 10 µM is 94.3%.

As to `COc1ccc(N2CCN(c3cncc(-c4ccc(C(N)=O)cc4)n3)CC2)cc1OC` [CBK065820], the viability at 28.5 h, 10 µM came out at 93.8%.

`COc1cc(CNc2cncc(-c3ccc(F)cc3F)n2)cc(OC)c1OC` [CBK065826]: the viability at 28.5 h, 10 µM was 115%.

For `CCNc1cncc(-c2ccccc2)n1` [CBK065847], the viability at 28.5 h, 10 µM is 85.5%.

As to `OCCNc1cncc(-c2ccccc2)n1` [CBK065857], the viability at 28.5 h, 10 µM amounted to 92%.

`CN1CCCN(c2cncc(-c3ccc(F)cc3F)n2)CC1` [CBK065858]: the viability at 28.5 h, 10 µM was determined as 97.9%.

Take `CCOc1ccc(-c2cncc(N3CCN(C(=O)c4ccco4)CC3)n2)cc1` [CBK065860]: the viability at 28.5 h, 10 µM is 109%.

Turning to `CCOc1ccc(-c2cncc(N3CCC(C(=O)O)CC3)n2)cc1` [CBK065870], the viability at 28.5 h, 10 µM came to 97.2%.

In the case of `CCOc1ccc(-c2cncc(NC3CCC(O)CC3)n2)cc1` (stereo not drawn) [CBK065877], the viability at 28.5 h, 10 µM was found to be 88.9%.

Regarding `CC(C)[C@H](CO)Nc1cncc(-c2ccc(F)cc2F)n1` [CBK065883], the viability at 28.5 h, 10 µM came out at 92.3%.

As for `CC(=O)Nc1ccc(-c2cncc(NC3CCC(O)CC3)n2)cc1` (stereo not drawn) [CBK065886], the viability at 28.5 h, 10 µM stood at 93.9%.

On to `CC(=O)Nc1ccc(-c2cncc(NC(C)CCCC(C)(C)O)n2)cc1` (stereo not drawn) [CBK065894], for which the viability at 28.5 h, 10 µM stood at 91.1%.

Take `OCC1CCCN1c1cncc(-c2ccc3c(c2)OCO3)n1` (stereo not drawn) [CBK065908]: the viability at 28.5 h, 10 µM was 100%.

As for `Cc1ccc(-c2cncc(N3CCN(CCO)CC3)n2)cc1C` [CBK065912], the viability at 28.5 h, 10 µM is 102%.

Take `FC(F)(F)Oc1cccc(-c2cncc(NCc3ccncc3)n2)c1` [CBK065926]: the viability at 28.5 h, 10 µM is 104%.

Consider `OCCN1CCN(c2cncc(-c3cccc(OC(F)(F)F)c3)n2)CC1` [CBK065941], for which the viability at 28.5 h, 10 µM was 108%.
